target: T1, Thyroid hormone receptor alpha (Homo sapiens, UniProt P10827); assay: TRalpha-Binding Assay.; details: not given
T1 sequence (P10827 whole entry): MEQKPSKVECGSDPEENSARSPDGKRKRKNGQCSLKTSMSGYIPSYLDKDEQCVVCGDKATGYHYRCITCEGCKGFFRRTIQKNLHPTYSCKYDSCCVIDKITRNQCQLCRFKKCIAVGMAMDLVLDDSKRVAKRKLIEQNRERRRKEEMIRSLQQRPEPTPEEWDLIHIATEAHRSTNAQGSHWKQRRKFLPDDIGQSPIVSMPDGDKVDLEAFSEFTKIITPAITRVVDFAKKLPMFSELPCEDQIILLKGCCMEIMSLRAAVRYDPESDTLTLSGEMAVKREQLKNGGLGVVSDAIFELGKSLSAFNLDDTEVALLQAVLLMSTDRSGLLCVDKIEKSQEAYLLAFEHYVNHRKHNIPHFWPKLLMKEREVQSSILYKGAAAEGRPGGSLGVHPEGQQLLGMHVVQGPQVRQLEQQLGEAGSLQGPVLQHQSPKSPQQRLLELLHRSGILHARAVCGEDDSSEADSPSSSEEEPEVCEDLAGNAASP

Row | Structure (SMILES) | IC50
1 | O=C(O)Cc1cc(Br)c(Oc2ccc(O)c(Oc3ccccc3)c2)c(Br)c1 [2-[3,5-dibromo-4-(4-hydroxy-3-phenoxyphenoxy)phenyl]acetic acid] | 123 nM
2 | O=C(O)Cc1cc(Br)c(Oc2ccc(O)c(Oc3ccc(C(F)(F)F)cc3)c2)c(Br)c1 [2-(3,5-dibromo-4-{4-hydroxy-3-[4-(trifluoromethyl)phenoxy]phenoxy}phenyl)acetic acid] | 326 nM
3 | O=C(O)Cc1cc(Br)c(Oc2ccc(O)c(C(=O)NCCCCc3ccccc3)c2)c(Br)c1 [2-(3,5-dibromo-4-{4-hydroxy-3-[(4-phenylbutyl)carbamoyl]phenoxy}phenyl)acetic acid] | 281 nM
4 | O=C(O)Cc1cc(Br)c(Oc2ccc(O)c(C(=O)NCCCc3ccccc3)c2)c(Br)c1 [2-(3,5-dibromo-4-{4-hydroxy-3-[(3-phenylpropyl)carbamoyl]phenoxy}phenyl)acetic acid] | 203 nM
5 | COc1ccc(CCNC(=O)c2cc(Oc3c(Br)cc(CC(=O)O)cc3Br)ccc2O)cc1 [2-[3,5-dibromo-4-(4-hydroxy-3-{[2-(4-methoxyphenyl)ethyl]carbamoyl}phenoxy)phenyl]acetic acid] | 228 nM
6 | O=C(O)Cc1cc(Br)c(Oc2ccc(O)c(C(=O)NCc3ccccc3)c2)c(Br)c1 [2-{4-[3-(benzylcarbamoyl)-4-hydroxyphenoxy]-3,5-dibromophenyl}acetic acid] | 84 nM
7 | O=C(O)Cc1cc(Br)c(Oc2ccc(O)c(Oc3ccccc3O)c2)c(Br)c1 [2-{3,5-dibromo-4-[4-hydroxy-3-(2-hydroxyphenoxy)phenoxy]phenyl}acetic acid] | 1470 nM
8 | O=C(O)Cc1cc(Br)c(Oc2ccc(O)c(Oc3cccc(-c4ccccc4)c3)c2)c(Br)c1 [2-{3,5-dibromo-4-[4-hydroxy-3-(3-phenylphenoxy)phenoxy]phenyl}acetic acid] | 499 nM
9 | O=C(O)Cc1cc(Br)c(Oc2ccc(O)c(C(=O)NCCc3ccccn3)c2)c(Br)c1 [2-[3,5-dibromo-4-(4-hydroxy-3-{[2-(pyridin-2-yl)ethyl]carbamoyl}phenoxy)phenyl]acetic acid] | 1130 nM
10 | O=C(O)Cc1cc(Br)c(Oc2ccc(O)c(Oc3cccc(O)c3)c2)c(Br)c1 [2-{3,5-dibromo-4-[4-hydroxy-3-(3-hydroxyphenoxy)phenoxy]phenyl}acetic acid] | 549 nM
11 | O=C(O)Cc1cc(Br)c(Oc2ccc(O)c(C(=O)Nc3ccccc3)c2)c(Br)c1 [2-{3,5-dibromo-4-[4-hydroxy-3-(phenylcarbamoyl)phenoxy]phenyl}acetic acid] | 424 nM
12 | O=C(O)Cc1cc(Cl)c(Oc2ccc(O)c(C(=O)NCCc3ccccc3)c2)c(Cl)c1 [2-(3,5-dichloro-4-{4-hydroxy-3-[(2-phenylethyl)carbamoyl]phenoxy}phenyl)acetic acid] | 127 nM
13 | O=C(O)Cc1cc(Br)c(Oc2ccc(O)c(Oc3ccccc3C(F)(F)F)c2)c(Br)c1 [2-(3,5-dibromo-4-{4-hydroxy-3-[2-(trifluoromethyl)phenoxy]phenoxy}phenyl)acetic acid] | 244 nM
14 | O=C(O)Cc1cc(Br)c(Oc2ccc(O)c(C(=O)NCCc3ccccc3)c2)c(Br)c1 [2-(3,5-dibromo-4-{4-hydroxy-3-[(2-phenylethyl)carbamoyl]phenoxy}phenyl)acetic acid] | 15 nM
15 | O=C(O)Cc1cc(Br)c(Oc2ccc(O)c(Oc3cccc(C(F)(F)F)c3)c2)c(Br)c1 [2-(3,5-dibromo-4-{4-hydroxy-3-[3-(trifluoromethyl)phenoxy]phenoxy}phenyl)acetic acid] | 50 nM
16 | COc1ccccc1CCNC(=O)c1cc(Oc2c(Br)cc(CC(=O)O)cc2Br)ccc1O [2-[3,5-dibromo-4-(4-hydroxy-3-{[2-(2-methoxyphenyl)ethyl]carbamoyl}phenoxy)phenyl]acetic acid] | 96 nM
17 | COc1cccc(CCNC(=O)c2cc(Oc3c(Br)cc(CC(=O)O)cc3Br)ccc2O)c1 [2-[3,5-dibromo-4-(4-hydroxy-3-{[2-(3-methoxyphenyl)ethyl]carbamoyl}phenoxy)phenyl]acetic acid] | 93 nM
18 | O=C(O)Cc1cc(Br)c(Oc2ccc(O)c(C(=O)NCC(c3ccccc3)c3ccccc3)c2)c(Br)c1 [2-(3,5-dibromo-4-{3-[(2,2-diphenylethyl)carbamoyl]-4-hydroxyphenoxy}phenyl)acetic acid] | 18 nM
19 | O=C(O)Cc1cc(Br)c(Oc2ccc(O)c(Oc3ccc(O)cc3)c2)c(Br)c1 [2-{3,5-dibromo-4-[4-hydroxy-3-(4-hydroxyphenoxy)phenoxy]phenyl}acetic acid] | 237 nM

same assay, conditions: pH 7; 4 °C

Row | IC50 | Structure (SMILES)
20 | 152 nM | O=C(O)Cc1cc(Cl)c(Oc2ccc(O)c(-c3ccccc3)c2)c(Cl)c1 [2-[3,5-dichloro-4-(4-hydroxy-3-phenylphenoxy)phenyl]acetic acid]
21 | 819 nM | O=C(O)Cc1cc(Cl)c(Oc2ccc(O)c(-c3cccnc3)c2)c(Cl)c1 [2-{3,5-dichloro-4-[4-hydroxy-3-(pyridin-3-yl)phenoxy]phenyl}acetic acid]
22 | 124 nM | CC(C)c1cccc(-c2cc(Oc3c(Cl)cc(CC(=O)O)cc3Cl)ccc2O)c1 [2-(3,5-dichloro-4-{4-hydroxy-3-[3-(propan-2-yl)phenyl]phenoxy}phenyl)acetic acid]
23 | 30 nM | O=C(O)Cc1cc(Cl)c(Oc2ccc(O)c(-c3cccc(OC(F)F)c3)c2)c(Cl)c1 [2-(3,5-dichloro-4-{3-[3-(difluoromethoxy)phenyl]-4-hydroxyphenoxy}phenyl)acetic acid]
24 | 454 nM | O=C(O)Cc1cc(Cl)c(Oc2ccc(O)c(-c3cccc(-c4ccccc4)c3)c2)c(Cl)c1 [2-{3,5-dichloro-4-[4-hydroxy-3-(3-phenylphenyl)phenoxy]phenyl}acetic acid]
25 | 297 nM | COc1cccc(-c2cc(Oc3c(Cl)cc(CC(=O)O)cc3Cl)ccc2O)c1 [2-{3,5-dichloro-4-[4-hydroxy-3-(3-methoxyphenyl)phenoxy]phenyl}acetic acid]
26 | 100 nM | O=C(O)Cc1cc(Cl)c(Oc2ccc(O)c(-c3cccc(OC(F)(F)F)c3)c2)c(Cl)c1 [2-(3,5-dichloro-4-{4-hydroxy-3-[3-(trifluoromethoxy)phenyl]phenoxy}phenyl)acetic acid]
27 | 847 nM | O=C(O)Cc1cc(Cl)c(Oc2ccc(O)c(-c3ccc(O)cc3)c2)c(Cl)c1 [2-{3,5-dichloro-4-[4-hydroxy-3-(4-hydroxyphenyl)phenoxy]phenyl}acetic acid]
28 | 145 nM | O=C(O)Cc1cc(Cl)c(Oc2ccc(O)c(-c3ccncc3)c2)c(Cl)c1 [2-{3,5-dichloro-4-[4-hydroxy-3-(pyridin-4-yl)phenoxy]phenyl}acetic acid]
29 | 13 nM | CCc1cccc(-c2cc(Oc3c(Cl)cc(CC(=O)O)cc3Cl)ccc2O)c1 [2-{3,5-dichloro-4-[3-(3-ethylphenyl)-4-hydroxyphenoxy]phenyl}acetic acid]
30 | 1520 nM | O=C(O)Cc1cc(Cl)c(Oc2ccc(O)c(-c3ccccn3)c2)c(Cl)c1 [2-{3,5-dichloro-4-[4-hydroxy-3-(pyridin-2-yl)phenoxy]phenyl}acetic acid]
31 | 1160 nM | O=C(O)Cc1cc(Cl)c(Oc2ccc(O)c(-c3cccc(O)c3)c2)c(Cl)c1 [2-{3,5-dichloro-4-[4-hydroxy-3-(3-hydroxyphenyl)phenoxy]phenyl}acetic acid]
32 | 40 nM | O=C(O)Cc1cc(Cl)c(Oc2ccc(O)c(-c3cccc(C(F)(F)F)c3)c2)c(Cl)c1 [2-(3,5-dichloro-4-{4-hydroxy-3-[3-(trifluoromethyl)phenyl]phenoxy}phenyl)acetic acid]
33 | 1050 nM | O=C(O)Cc1cc(Cl)c(Oc2ccc(O)c(-c3ccccc3O)c2)c(Cl)c1 [2-{3,5-dichloro-4-[4-hydroxy-3-(2-hydroxyphenyl)phenoxy]phenyl}acetic acid]

Second part, the molecule before the results:

Row | Structure (SMILES) | IC50
34 | O=C(O)Cc1cc(Cl)c(Oc2ccc(O)c(-c3ccc(C(F)(F)F)cc3)c2)c(Cl)c1 [2-(3,5-dichloro-4-{4-hydroxy-3-[4-(trifluoromethyl)phenyl]phenoxy}phenyl)acetic acid] | 515 nM
35 | O=C(O)Cc1cc(Cl)c(Oc2ccc(O)c(-c3ccccc3C(F)(F)F)c2)c(Cl)c1 [2-(3,5-dichloro-4-{4-hydroxy-3-[2-(trifluoromethyl)phenyl]phenoxy}phenyl)acetic acid] | 18 nM
36 | O=C(O)Cc1cc(Cl)c(Oc2ccc(O)c(C3CCCCC3)c2)c(Cl)c1 [2-[3,5-dichloro-4-(3-cyclohexyl-4-hydroxyphenoxy)phenyl]acetic acid] | 258 nM
37 | O=C(O)Cc1cc(Cl)c(Oc2ccc(O)c(-c3cncnc3)c2)c(Cl)c1 [2-{3,5-dichloro-4-[4-hydroxy-3-(pyrimidin-5-yl)phenoxy]phenyl}acetic acid] | 269 nM
38 | O=C(O)Cc1cc(Cl)c(Oc2ccc(O)c(-c3nccs3)c2)c(Cl)c1 [2-{3,5-dichloro-4-[4-hydroxy-3-(1,3-thiazol-2-yl)phenoxy]phenyl}acetic acid] | 558 nM
